Where two headings read alike, the source gives them in different places.
Columns and labels:
[1] = biological target: human CB1 (Homo sapiens, UniProt P21554); test: [3H]CP55,940 equilibrium binding, HEK293-hCB1 cell membranes; design: 3x hemagglutinin (3HA) (N); expressed in transfected cells; membrane preparation; details: up to 10 µM
[2] = biological target: T1, endogenous mouse CB1 (Mus musculus, UniProt P47746); test: THC-induced p-ERK1/2 in STHdhQ7/Q7 cells; type: cell-based; details: STHdhQ7/Q7, THC 10 µM; read-out: IC50, inhibition of THC-induced p-ERK1/2
T1 construct: a striatum-derived cell line that endogenously express murine CB1; host or cells: STHdhQ7/Q7

[3] = 91-d repeated oral toxicity study in dogs (GLP); type: in vivo; details: both sexes, Beagle, dog, in vivo
[4] = system: dogs; test: 91-d repeated oral toxicity study in dogs (GLP); type: in vivo
[5] = Plasma and brain pharmacokinetics of oral AEF0117 in mice; type: in vivo; details: mouse; for Kp: brain/plasma
Description: Blood samples were centrifuged within 15 min after collection (~7 min at 1,600g and 4 °C) to obtain plasma. The brain was also harvested, weighed and frozen on dry ice. Plasma and brains were stored below −70 °C until analysis.

[6] = system: rats; test: Respiration in unrestrained conscious rats (GLP)
[7] = system: healthy volunteers; test: Phase 1 multiple-ascending-dose (MAD) study, safety
Description: Four single oral dose levels (0.2, 0.6, 2 and 6 mg) were given in the morning on day 1 in the SAD study, and three oral doses (0.6, 2 and 6 mg) were given in the morning of day 1 to day 7 in the MAD study, to independent dose cohorts. […] Each dose cohort comprised eight volunteers (six (5/1) active and two (1/1) placebo per dose level).
In the MAD study, each randomized participant received a single oral dose per day on days 1 through 7. […] As an approximation, plasma PK concentrations and parameters were presented for all participants as if occurring on day 7.
Participants were admitted to the research clinic at midday before dosing (day −1). In the SAD study, they remained in-house until day 8 for PK and PD samples and safety assessments. In the MAD study, participants remained in-house until day 14 and returned to the research facility on an outpatient basis to have PK and safety assessments at 216 h and 264 h (day 16 and day 18) after their last dose (day 7). Safety monitoring (physical examinations, vital sign measurements, 12-lead ECGs, clinical safety laboratory tests and AE monitoring) were performed throughout the studies. Psychometrics tests (Bond & Lader VAS, Addiction Research Center Inventory (49-item short form) (ARCI-49) and Profile of Mood States 65 self-report items (POMS-65)) and the Columbia-Suicide Severity Rating Scale (C-SSRS) test were performed at baseline, before dose and at 4 h and 24 h after dose on day 1 and day 7 (MAD study, only) and C-SSRS only at 24 h.
All participants who had AEs, whether considered associated with the use of the investigational product or not, were monitored for as long as needed to determine resolution.

[8] = MAD study, plasma pharmacokinetics; type: in vivo, human; details: for Cmax / Tmax / half-life: human, plasma, oral; for Cmax: read-out: Cmax, mean (±SD); for Tmax: read-out: tmax, median (range)
Description: Samples were collected at the same timepoints on day 1 and day 7: before dose and 0.5, 1, 1.5, 2, 3, 4, 6, 8 and 12 h after dose. Additional samples were collected on day 2 to day 6 before dose (that is, 24 h from the previous dose) and on days […] (that is, 24, 48, 72, 96, 120, 144, 168, 216 and 264 h after the last dose at day 7).
For both SAD and MAD studies, the PK parameters were calculated using standard non-compartmental methods for those with sufficient plasma concentration data.

[9] = end of drug withdrawal period (week 18)
[10] = both sexes, CD-1 Swiss, plasma, mice po 0.3 mg/kg single
[11] = both sexes, CD-1 Swiss, plasma, mice po 4 mg/kg single
[12] = both sexes, CD-1 Swiss, plasma, mice po 10 mg/kg single
[13] = 0.6 mg/day, MAD Day 1, 0.6 mg/day
[14] = 0.6 mg/day, MAD Day 7, 0.6 mg/day

T1 sequence (P47746 whole entry): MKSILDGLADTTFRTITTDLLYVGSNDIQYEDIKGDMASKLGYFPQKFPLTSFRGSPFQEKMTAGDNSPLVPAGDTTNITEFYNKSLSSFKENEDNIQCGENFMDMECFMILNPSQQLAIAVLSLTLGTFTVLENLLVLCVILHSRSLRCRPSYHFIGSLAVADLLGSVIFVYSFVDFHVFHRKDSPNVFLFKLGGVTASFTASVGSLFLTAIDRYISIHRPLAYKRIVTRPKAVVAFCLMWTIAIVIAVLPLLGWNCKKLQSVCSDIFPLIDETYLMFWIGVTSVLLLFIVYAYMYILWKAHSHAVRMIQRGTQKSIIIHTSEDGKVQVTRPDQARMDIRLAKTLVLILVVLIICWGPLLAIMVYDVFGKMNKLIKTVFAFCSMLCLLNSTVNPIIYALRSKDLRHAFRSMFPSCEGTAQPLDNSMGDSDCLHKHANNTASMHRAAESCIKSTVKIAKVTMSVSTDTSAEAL
human CB1, sequence (P21554 whole entry): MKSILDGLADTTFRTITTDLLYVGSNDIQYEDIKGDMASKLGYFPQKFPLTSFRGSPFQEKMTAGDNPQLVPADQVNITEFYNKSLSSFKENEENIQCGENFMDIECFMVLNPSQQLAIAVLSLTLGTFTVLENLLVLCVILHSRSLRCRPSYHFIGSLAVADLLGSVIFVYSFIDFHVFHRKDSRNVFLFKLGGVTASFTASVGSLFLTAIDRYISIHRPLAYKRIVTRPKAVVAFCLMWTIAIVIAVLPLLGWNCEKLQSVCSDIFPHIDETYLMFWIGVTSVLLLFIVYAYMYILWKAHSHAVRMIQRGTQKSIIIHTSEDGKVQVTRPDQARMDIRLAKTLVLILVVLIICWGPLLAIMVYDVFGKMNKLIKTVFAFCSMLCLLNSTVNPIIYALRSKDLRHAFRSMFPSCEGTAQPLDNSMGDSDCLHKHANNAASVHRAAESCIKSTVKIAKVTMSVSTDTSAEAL

For `COc1ccc(CO[C@H]2CC[C@@]3(C)C(=CC[C@H]4[C@@H]5CC[C@H](C(C)=O)[C@@]5(C)CC[C@@H]43)C2)cc1` [AEF0117, 3β-(4-methoxybenzyloxy)pregn-5-en-20-one], the “effect on equilibrium binding of [3H]CP55,940” value [1] was “does not modify”, the IC50 [2] was 300 nM and the NOAEL at 91 d ([3]; 91-d repeated oral) was over 65 mg/kg/day. For the same compound, the NOAEL at 91 day ([3]; oral, 91-day, highest dose tested) was 65 mg/kg/day, the “change in eosinophil count” value ([4]; all dose groups, week 5) was -41% and the “change in eosinophil count” value ([4]; all dose groups, week 14) was -54%. For the same compound, the “change in lymphocyte count” value ([4]; all dose groups, week 14) was -17 to -24%, the “change in eosinophil count” value [4, 9] was -66% and the “change in lymphocyte count” value [4, 9] was -19%. For the same compound, the “change in thymus weight vs vehicle” value ([4]; end of treatment period) was -15 to -24%, the Tmax ([5]; CD-1 Swiss (mice), Sprague Dawley (rats), brain, oral, mice and rats, read-out: tmax in the brain) was 7 h and the Kp ([5]; CD-1 Swiss (mice), Sprague Dawley (rats), po, mice and rats, oral, corn oil, read-out: brain/plasma concentration AUC ratio) was over 4. For the same compound, the Tmax ([5]; CD-1 Swiss (mice), Sprague Dawley (rats), Beagle (dogs), plasma, po, mice, rats and dogs, single per os, read-out: tmax) was about 3 h, the Kp ([5]; both sexes, CD-1 Swiss, oral, 0.3 mg/kg, read-out: AUClast brain/plasma ratio) was 7.3 and the half-life ([5]; both sexes, CD-1 Swiss, plasma, po, mice per os, read-out: half-life) was 10.1 to 25.6 h. The AUC(0-t) [5, 10] was 252 ng·h/mL, the Cmax [5, 10] was 35.5 ng/mL and the Tmax ([5]; both sexes, CD-1 Swiss, plasma, mice po 0.3 mg/kg single, read-out: tmax) was 2.5 h. It also gave a half-life ([5]; both sexes, CD-1 Swiss, plasma, mice po 0.3 mg/kg single, read-out: t½ (converted)) of 17.8 h, an AUC(0-t) [5, 11] of 3730 ng·h/mL and a Cmax [5, 11] of 490 ng/mL. The Tmax ([5]; both sexes, CD-1 Swiss, plasma, mice po 4 mg/kg single, read-out: tmax) was 2.25 h, the half-life ([5]; both sexes, CD-1 Swiss, plasma, mice po 4 mg/kg single, read-out: t½ (converted)) was 18.3 h and the AUC(0-t) [5, 12] was 11300 ng·h/mL. For the same compound, the Cmax [5, 12] was 1790 ng/mL, the Tmax ([5]; both sexes, CD-1 Swiss, plasma, mice po 10 mg/kg single, read-out: tmax) was 2.25 h and the half-life ([5]; both sexes, CD-1 Swiss, plasma, mice po 10 mg/kg single, read-out: t½ (converted)) was 18.2 h. The Tmax ([5]; both sexes, CD-1 Swiss, plasma, mice, oral, corn oil, read-out: Tmax) was 3 h, the “adverse effects on respiration” value [6] was “did not show any adverse effects” and the “Number of TEAEs” value ([7]; 0.6 mg/d 7 d) was 7 E. The “Number of participants with a TEAE leading to discontinuation” value (“Number … to discontinuation” below) ([7]; 0.6 mg/d 7 d) was 1 (16.7) n (%), the “Number of participants with an SAE” value ([7]; 0.6 mg/d 7 d) was 0 n (%) and the “Number of participants with at least one TEAE” value (shortened to “Number … at least one TEAE”) ([7]; 0.6 mg/d 7 d) was 3 (50.0) n (%). For the same compound, the “Participants with TEAE: Mild” value ([7]; 0.6 mg/d 7 d) was 2 (33.3) n (%), the “Participants with TEAE: Moderate” value ([7]; 0.6 mg/d 7 d) was 1 (16.7) n (%) and the “Participants with TEAE: Not related” value ([7]; 0.6 mg/d 7 d) was 1 (16.7) n (%). For the same compound, the “Participants with TEAE: Related” value ([7]; 0.6 mg/d 7 d) was 3 (50.0) n (%), the “Participants with TEAE: Severe” value ([7]; 0.6 mg/d 7 d) was 0 n (%) and the “TEAEs by SOC: Eye disorder” value ([7]; 0.6 mg/d 7 d) was 0 n (%). The “TEAEs by SOC: Gastrointestinal disorders” value ([7]; 0.6 mg/d 7 d) was 0 n (%), the “TEAEs by SOC: General disorders and administration site conditions” value ([7]; 0.6 mg/d 7 d) was 1 (16.7) n (%) and the “TEAEs by SOC: Investigations” value ([7]; 0.6 mg/d 7 d) was 0 n (%). The “TEAEs by SOC: Metabolism and nutrition disorders” value ([7]; 0.6 mg/d 7 d) was 1 (16.7) n (%), the “TEAEs by SOC: Nervous system disorders” value ([7]; 0.6 mg/d 7 d) was 2 (33.3) n (%) and the “TEAEs by SOC: Skin and subcutaneous tissue disorders” value ([7]; 0.6 mg/d 7 d) was 1 (16.7) n (%). For the same compound, the “Number of TEAEs” value ([7]; 2 mg/d 7 d) was 3 E, the “Number … to discontinuation” value ([7]; 2 mg/d 7 d) was 0 n (%) and the “Number of participants with an SAE” value ([7]; 2 mg/d 7 d) was 0 n (%). The “Number … at least one TEAE” value ([7]; 2 mg/d 7 d) was 2 (33.3) n (%), the “Participants with TEAE: Mild” value ([7]; 2 mg/d 7 d) was 2 (33.3) n (%) and the “Participants with TEAE: Moderate” value ([7]; 2 mg/d 7 d) was 0 n (%). For the same compound, the “Participants with TEAE: Not related” value ([7]; 2 mg/d 7 d) was 1 (16.7) n (%), the “Participants with TEAE: Severe” value ([7]; 2 mg/d 7 d) was 0 n (%) and the “TEAEs by SOC: Eye disorder” value ([7]; 2 mg/d 7 d) was 0 n (%). For the same compound, the “TEAEs by SOC: Gastrointestinal disorders” value ([7]; 2 mg/d 7 d) was 1 (16.7) n (%), the “TEAEs by SOC: General disorders and administration site conditions” value ([7]; 2 mg/d 7 d) was 0 n (%) and the “TEAEs by SOC: Investigations” value ([7]; 2 mg/d 7 d) was 1 (16.7) n (%). For the same compound, the “TEAEs by SOC: Metabolism and nutrition disorders” value ([7]; 2 mg/d 7 d) was 0 n (%), the “TEAEs by SOC: Nervous system disorders” value ([7]; 2 mg/d 7 d) was 0 n (%) and the “TEAEs by SOC: Skin and subcutaneous tissue disorders” value ([7]; 2 mg/d 7 d) was 0 n (%). For the same compound, the “Number of TEAEs” value ([7]; 6 mg/d 7 d) was 6 E, the “Number … to discontinuation” value ([7]; 6 mg/d 7 d) was 0 n (%) and the “Number of participants with an SAE” value ([7]; 6 mg/d 7 d) was 0 n (%). The “Number … at least one TEAE” value ([7]; 6 mg/d 7 d) was 2 (33.3) n (%), the “Participants with TEAE: Mild” value ([7]; 6 mg/d 7 d) was 2 (33.3) n (%) and the “Participants with TEAE: Moderate” value ([7]; 6 mg/d 7 d) was 1 (16.7) n (%). For the same compound, the “Participants with TEAE: Not related” value ([7]; 6 mg/d 7 d) was 2 (33.3) n (%), the “Participants with TEAE: Related” value ([7]; 6 mg/d 7 d) was 2 (33.3) n (%) and the “Participants with TEAE: Severe” value ([7]; 6 mg/d 7 d) was 0 n (%). The “TEAEs by SOC: Eye disorder” value ([7]; 6 mg/d 7 d) was 1 (16.7) n (%), the “TEAEs by SOC: Gastrointestinal disorders” value ([7]; 6 mg/d 7 d) was 0 n (%) and the “TEAEs by SOC: General disorders and administration site conditions” value ([7]; 6 mg/d 7 d) was 1 (16.7) n (%). The “TEAEs by SOC: Investigations” value ([7]; 6 mg/d 7 d) was 0 n (%), the “TEAEs by SOC: Metabolism and nutrition disorders” value ([7]; 6 mg/d 7 d) was 0 n (%) and the “TEAEs by SOC: Nervous system disorders” value ([7]; 6 mg/d 7 d) was 2 (33.3) n (%). The “TEAEs by SOC: Skin and subcutaneous tissue disorders” value ([7]; 6 mg/d 7 d) was 1 (16.7) n (%), the “concentration at 264 h as share of Cmax at Day 7” value ([8]; MAD, all doses) was 4% and the Cmax [8, 13] was 4.6 ± 1.4 ng/mL. It also gave a Tmax [8, 13] of 3 h, a half-life ([8]; 0.6 mg/day, MAD Day 7, 0.6 mg/day, 0-264 h, read-out: t½, min-max) of 153 to 252 h and a Cmax [8, 14] of 3.3 ± 0.3 ng/mL. It also gave a Tmax [8, 14] of 3 h, a Cmax ([8]; 2 mg/day, MAD Day 1, 2 mg/day) of 11.6 ± 3.7 ng/mL and a Tmax ([8]; 2 mg/day, MAD Day 1, 2 mg/day) of 3 h. The half-life ([8]; 2 mg/day, MAD Day 7, 2 mg/day, 0-264 h, read-out: t½, min-max) was 152 to 240 h, the Cmax ([8]; 2 mg/day, MAD Day 7, 2 mg/day) was 14.5 ± 4.9 ng/mL and the Tmax ([8]; 2 mg/day, MAD Day 7, 2 mg/day) was 3 h. For the same compound, the Cmax ([8]; 6 mg/day, MAD Day 1, 6 mg/day) was 35.9 ± 13.5 ng/mL, the Tmax ([8]; 6 mg/day, MAD Day 1, 6 mg/day) was 3.5 h and the half-life ([8]; 6 mg/day, MAD Day 7, 6 mg/day, 0-264 h, read-out: t½, min-max) was 160 to 258 h. It also gave a Cmax ([8]; 6 mg/day, MAD Day 7, 6 mg/day) of 37.1 ± 7.3 ng/mL, a Tmax ([8]; 6 mg/day, MAD Day 7, 6 mg/day) of 2.5 h and a half-life ([8]; humans, MAD study, range between participants, read-out: terminal half-life) of 152 to 259 h.

Reference: PMC10287566, “Signaling-specific inhibition of the CB1 receptor for cannabis use disorder: phase 1 and phase 2a randomized trials” (Nature Medicine, 2023)
